In brackets after ≈: the same amount, converted by molar mass.
Experiments:
C. albicans ATCC 90028 = experiment: Anti-Fungal Activity Assay (broth microtiter MIC), C. albicans; assay type: cell-based, Candida albicans; details: 3 replicates, MIC recorded at 48 h; for MIC: Candida albicans, ATCC90028, 48 h, read-out: MIC C. albicans ATCC 90028
Procedure: (§1) Compounds of the present invention were evaluated in an Anti-Fungal Activity Assay. An exemplary procedure for the assay, which measures the susceptibility of various Candida species to anti-fungal compounds, follows. Compounds to be tested (including fluconazole and amphotericin B) were dissolved in DMSO to obtain a solution having a concentration of 1 mg/mL. […] All species were grown from frozen stock by directly plating on to freshly prepared Sabouraud Dextrose agar (BD, Difco) and incubated overnight in ambient air at 35° C. for 24 h. A direct suspension was prepared in RPMI 1640+MOPS (Lonza, Biowhittaker) by taking individual colonies from the overnight cultures using sterile swabs soaked in sterile saline. The concentration of the suspension was determined using pre-determined standard curves. […] Broth microtiter MIC challenge plates were prepared following CLSI guidelines (M27-A3, Vol. 28 No. 14). The original CLSI guidelines focused on reading Candida MICs after 48 h of incubation. As reading after only 24 h offers a clear advantage of patient care, QC limits are being established for all drugs at 24 h. That being said there are no known interpretive breakpoints for amphotericin B at 24 h and the current fluconazole interpretive breakpoints are based on a 48 h reading. The MIC breakpoints for the test compounds were recorded at 48 h, and for the soraphen the 24 h time-point was added. All MIC determinations were achieved by visually comparing the growth found in the antibiotic challenged wells to that of the growth control.

Human ACC2 = Human ACC2 (Homo sapiens, UniProt O00763); experiment: In vitro ACC2 inhibition assay (ADP-Glo), human ACC2; assay type: biochemical; details: 5 nM ACC2, 20 μM ATP, 20 μM acetyl-CoA
C. krusei ATCC 6258 = experiment: Anti-Fungal Activity Assay (broth microtiter MIC), C. krusei; assay type: cell-based, Candida krusei; details: 3 replicates, MIC recorded at 48 h; for MIC: Pichia kudriavzevii, ATCC6258, 48 h, read-out: MIC C. krusei ATCC 6258
Procedure: as §1

[1] = test system: C. parapsilosis ATCC 22019; experiment: Anti-Fungal Activity Assay (broth microtiter MIC), C. parapsilosis; assay type: cell-based, Candida parapsilosis; details: Lodderomyces parapsilosis, ATCC22019, 48 h, 3 replicates; MIC recorded at 48 h; read-out: MIC C. parapsilosis ATCC 22019
Procedure: as §1

Sequence of Human ACC2 (O00763 whole entry): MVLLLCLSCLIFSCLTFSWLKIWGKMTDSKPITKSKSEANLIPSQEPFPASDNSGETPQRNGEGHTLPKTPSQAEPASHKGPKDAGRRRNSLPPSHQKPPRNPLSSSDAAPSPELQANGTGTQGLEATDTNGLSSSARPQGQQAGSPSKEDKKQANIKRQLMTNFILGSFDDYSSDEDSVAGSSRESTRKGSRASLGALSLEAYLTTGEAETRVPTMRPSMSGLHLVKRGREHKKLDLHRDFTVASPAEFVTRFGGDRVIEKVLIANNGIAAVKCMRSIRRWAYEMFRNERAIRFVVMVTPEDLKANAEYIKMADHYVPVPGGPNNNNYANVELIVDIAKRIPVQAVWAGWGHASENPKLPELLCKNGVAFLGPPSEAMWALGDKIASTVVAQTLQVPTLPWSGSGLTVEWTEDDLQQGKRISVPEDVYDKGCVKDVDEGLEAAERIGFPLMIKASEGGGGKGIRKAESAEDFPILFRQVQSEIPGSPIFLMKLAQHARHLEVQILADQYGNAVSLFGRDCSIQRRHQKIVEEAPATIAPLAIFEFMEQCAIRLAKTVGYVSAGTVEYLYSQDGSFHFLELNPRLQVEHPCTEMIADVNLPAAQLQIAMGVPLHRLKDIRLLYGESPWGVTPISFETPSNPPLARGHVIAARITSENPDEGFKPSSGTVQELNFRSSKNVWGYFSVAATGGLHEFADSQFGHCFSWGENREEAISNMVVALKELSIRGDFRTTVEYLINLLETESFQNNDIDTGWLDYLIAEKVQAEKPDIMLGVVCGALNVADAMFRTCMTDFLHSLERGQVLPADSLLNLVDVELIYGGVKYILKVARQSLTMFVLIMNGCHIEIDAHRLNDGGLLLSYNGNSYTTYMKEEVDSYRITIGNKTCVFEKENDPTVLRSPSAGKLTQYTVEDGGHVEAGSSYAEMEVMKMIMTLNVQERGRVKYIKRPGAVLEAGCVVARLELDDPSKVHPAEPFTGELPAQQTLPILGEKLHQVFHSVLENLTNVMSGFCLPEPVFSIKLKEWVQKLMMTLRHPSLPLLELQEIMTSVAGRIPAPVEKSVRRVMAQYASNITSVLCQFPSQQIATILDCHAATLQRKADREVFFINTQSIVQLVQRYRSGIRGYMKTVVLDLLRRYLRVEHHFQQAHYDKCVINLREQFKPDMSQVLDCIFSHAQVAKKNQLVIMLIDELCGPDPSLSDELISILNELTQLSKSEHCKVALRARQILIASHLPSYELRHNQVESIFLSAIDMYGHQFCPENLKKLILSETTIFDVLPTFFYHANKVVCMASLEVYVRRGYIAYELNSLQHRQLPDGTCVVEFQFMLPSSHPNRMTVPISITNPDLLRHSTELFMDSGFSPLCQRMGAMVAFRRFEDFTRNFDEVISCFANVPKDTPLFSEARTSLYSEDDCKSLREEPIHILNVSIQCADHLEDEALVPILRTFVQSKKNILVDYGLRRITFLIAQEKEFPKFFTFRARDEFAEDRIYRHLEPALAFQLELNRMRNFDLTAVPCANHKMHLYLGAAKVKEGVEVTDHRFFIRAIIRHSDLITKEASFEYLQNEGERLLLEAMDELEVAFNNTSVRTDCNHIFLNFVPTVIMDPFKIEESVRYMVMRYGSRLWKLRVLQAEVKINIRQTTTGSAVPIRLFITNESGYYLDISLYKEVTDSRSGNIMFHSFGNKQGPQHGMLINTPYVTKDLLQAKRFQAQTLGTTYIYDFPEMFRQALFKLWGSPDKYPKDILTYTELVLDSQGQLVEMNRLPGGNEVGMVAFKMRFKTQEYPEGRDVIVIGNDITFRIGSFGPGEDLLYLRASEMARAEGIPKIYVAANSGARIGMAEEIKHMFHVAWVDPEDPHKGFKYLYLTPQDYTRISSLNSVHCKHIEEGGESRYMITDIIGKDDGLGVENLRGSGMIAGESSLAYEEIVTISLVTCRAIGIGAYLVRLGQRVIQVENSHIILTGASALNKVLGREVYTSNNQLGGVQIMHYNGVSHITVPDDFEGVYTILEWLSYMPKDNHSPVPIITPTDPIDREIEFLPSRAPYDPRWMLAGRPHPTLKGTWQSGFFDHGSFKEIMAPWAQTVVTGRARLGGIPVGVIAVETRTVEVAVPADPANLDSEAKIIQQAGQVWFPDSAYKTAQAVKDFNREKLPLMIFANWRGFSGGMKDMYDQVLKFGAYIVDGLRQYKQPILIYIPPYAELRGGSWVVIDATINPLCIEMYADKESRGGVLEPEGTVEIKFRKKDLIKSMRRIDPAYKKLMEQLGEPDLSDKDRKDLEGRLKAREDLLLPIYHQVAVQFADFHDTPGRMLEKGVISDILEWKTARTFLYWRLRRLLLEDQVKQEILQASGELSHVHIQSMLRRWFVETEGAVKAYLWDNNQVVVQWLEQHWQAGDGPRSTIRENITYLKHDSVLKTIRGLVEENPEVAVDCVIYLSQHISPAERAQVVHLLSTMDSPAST

Structure (SMILES) | MIC C. albicans ATCC 90028 (C. albicans ATCC 90028) | IC50 (Human ACC2) | MIC C. krusei ATCC 6258 (C. krusei ATCC 6258) | MIC [1] | MIC (C. albicans ATCC 90028) | MIC (C. krusei ATCC 6258)
CCN1CCC(n2c(=O)c3c(C)c(-n4nccn4)sc3n(C[C@H](OCCOC)c3cc(F)ccc3OC)c2=O)C1=O (stereo partly drawn) [Compound I-3, 3-(1-ethyl-2-oxopyrrolidin-3-yl)-1-((R)-2-(5-fluoro-2-methoxyphenyl)-2-(2-methoxyethoxy)ethyl)-5-methyl-6-(2H-1,2,3-triazol-2-yl)thieno[2,3-d]pyrimidine-2,4(1H,3H)-dione] | – | 10 to 100 nM | – | 2.1 to 4 µg/mL (≈ 3.58 to 6.82 µM) | 2.1 to 4 µg/mL (≈ 3.58 to 6.82 µM) | 2.1 to 4 µg/mL (≈ 3.58 to 6.82 µM)
COc1ccc(F)cc1[C@H](Cn1c(=O)n(C2CCN(C)C2=O)c(=O)c2c(C)c(-n3nccn3)sc21)OCCO (stereo partly drawn) [Compound I-6, 1-((R)-2-(5-fluoro-2-methoxyphenyl)-2-(2-hydroxy-ethoxy)ethyl)-5-methyl-3-(-methyl-2-oxopyrrolidin-3-yl)-6-(2H-1,2,3-triazol-2-yl)thieno[2,3-d]pyrimidine-2,4(1H,3H)-dione] | – | 10 to 100 nM | – | 2.1 to 4 µg/mL (≈ 3.76 to 7.16 µM) | 2.1 to 4 µg/mL (≈ 3.76 to 7.16 µM) | 2.1 to 4 µg/mL (≈ 3.76 to 7.16 µM)
CCN1CCC(n2c(=O)c3c(C)c(-n4nccn4)sc3n(C[C@H](OCCO)c3cc(F)ccc3OC)c2=O)C1=O (stereo partly drawn) [Compound I-7, 3-(1-ethyl-2-oxopyrrolidin-3-yl)-1-((R)-2-(5-fluoro-2-methoxyphenyl)-2-(2-hydroxyethoxy)ethyl)-5-methyl-6-(2H-1,2,3-triazol-2-yl)thieno[2,3-d]pyrimidine-2,4(1H,3H)-dione] | – | 10 to 100 nM | – | 2.1 to 4 µg/mL (≈ 3.67 to 6.99 µM) | 2.1 to 4 µg/mL (≈ 3.67 to 6.99 µM) | 1.1 to 2 µg/mL (≈ 1.92 to 3.49 µM)
COc1ccc(F)cc1[C@H](Cn1c(=O)n(C2CCN(C(C)C)C2=O)c(=O)c2c(C)c(-n3nccn3)sc21)OCCO (stereo partly drawn) [Compound I-8, 1-((R)-2-(5-fluoro-2-methoxyphenyl)-2-(2-hydroxyethoxy)ethyl)-3-(1-isopropyl-2-oxopyrrolidin-3-yl)-5-methyl-6-(2H-1,2,3-triazol-2-yl)thieno[2,3-d]pyrimidine-2,4(1H,3H)-dione] | – | 2 to 10 nM | – | – | – | –
COc1ccc(F)cc1[C@H](Cn1c(=O)n(C2CCCNC2=O)c(=O)c2c(C)c(-n3nccn3)sc21)OCCO (stereo partly drawn) [Compound I-17, 1-((R)-2-(5-fluoro-2-methoxyphenyl)-2-(2-hydroxy-ethoxy)ethyl)-5-methyl-3-(2-oxopiperidin-3-yl)-6-(2H-1,2,3-triazol-2-yl)thieno[2,3-d]pyrimidine-2,4(1H,3H)-dione] | – | 2 to 10 nM | – | 2.1 to 4 µg/mL (≈ 3.76 to 7.16 µM) | 2.1 to 4 µg/mL (≈ 3.76 to 7.16 µM) | 2.1 to 4 µg/mL (≈ 3.76 to 7.16 µM)
CCN1CCCC(n2c(=O)c3c(C)c(-n4nccn4)sc3n(C[C@H](OCCO)c3cc(F)ccc3OC)c2=O)C1=O (stereo partly drawn) [Compound I-19, 3-(1-ethyl-2-oxopiperidin-3-yl)-1-((R)-2-(5-fluoro-2-methoxyphenyl)-2-(2-hydroxyethoxy)ethyl)-5-methyl-6-(2H-1,2,3-triazol-2-yl)thieno[2,3-d]pyrimidine-2,4(1H,3H)-dione] | – | 10 to 100 nM | – | 2.1 to 4 µg/mL (≈ 3.58 to 6.82 µM) | 2.1 to 4 µg/mL (≈ 3.58 to 6.82 µM) | 2.1 to 4 µg/mL (≈ 3.58 to 6.82 µM)
COc1ccc(F)cc1[C@H](Cn1c(=O)n(C2CCCN(C(C)C)C2=O)c(=O)c2c(C)c(-n3nccn3)sc21)OCCO (stereo partly drawn) [Compound I-20, 1-((R)-2-(5-fluoro-2-methoxyphenyl)-2-(2-hydroxy-ethoxy)ethyl)-3-(1-isopropyl-2-oxopiperidin-3-yl)-5-methyl-6-(2H-1,2,3-triazol-2-yl)thieno[2,3-d]pyrimidine-2,4(1H,3H)-dione] | – | 10 to 100 nM | – | 2.1 to 4 µg/mL (≈ 3.5 to 6.66 µM) | 2.1 to 4 µg/mL (≈ 3.5 to 6.66 µM) | 2.1 to 4 µg/mL (≈ 3.5 to 6.66 µM)
COc1ccc(F)cc1[C@H](Cn1c(=O)n(C2CCCN(C(C)C)C2=O)c(=O)c2c(C)c(-n3nccn3)sc21)OC1CCOCC1 (stereo partly drawn) [Compound I-24] | – | 10 to 100 nM | – | 0.25 to 1 µg/mL (≈ 0.39 to 1.56 µM) | 0.25 to 1 µg/mL (≈ 0.39 to 1.56 µM) | 0.25 to 1 µg/mL (≈ 0.39 to 1.56 µM)
COc1ccc(F)cc1[C@H](Cn1c(=O)n([C@]2(C)CCNC2=O)c(=O)c2c(C)c(-n3nccn3)sc21)OCCO [Compound I-144, 1-((R)-2-(5-fluoro-2-methoxyphenyl)-2-(2-hydroxyethoxy)ethyl)-5-methyl-3-((R)-3-methyl-2-oxopyrrolidin-3-yl)-6-(2H-1,2,3-triazol-2-yl)thieno[2,3-d]pyrimidine-2,4(1H,3H)-dione] | – | > 1000 nM | – | – | – | –
COc1ccc(F)cc1[C@H](Cn1c(=O)n([C@@]2(C)CCNC2=O)c(=O)c2c(C)c(-n3nccn3)sc21)OCCO [Compound I-145, 1-((R)-2-(5-fluoro-2-methoxyphenyl)-2-(2-hydroxy-ethoxy)ethyl)-5-methyl-3-((S)-3-methyl-2-oxopyrrolidin-3-yl)-6-(2H-1,2,3-triazol-2-yl)thieno[2,3-d]pyrimidine-2,4(1H,3H)-dione] | – | > 1000 nM | – | – | – | –
COc1ccc(F)cc1[C@H](Cn1c(=O)n([C@]2(C)CCN(C)C2=O)c(=O)c2c(C)c(-n3nccn3)sc21)OCCO [Compound I-147, 3-((R)-1,3-dimethyl-2-oxopyrrolidin-3-yl)-1-((R)-2-(5-fluoro-2-methoxyphenyl)-2-(2-hydroxyethoxy)ethyl)-5-methyl-6-(2H-1,2,3-triazol-2-yl)thieno[2,3-d]pyrimidine-2,4(1H,3H)-dione] | – | > 1000 nM | – | – | – | –
COc1ccc(F)cc1[C@H](Cn1c(=O)n([C@@]2(C)CCN(C)C2=O)c(=O)c2c(C)c(-n3nccn3)sc21)OCCO [Compound I-149, 3-((S)-1,3-dimethyl-2-oxopyrrolidin-3-yl)-1-((R)-2-(5-fluoro-2-methoxyphenyl)-2-(2-hydroxyethoxy)ethyl)-5-methyl-6-(2H-1,2,3-triazol-2-yl)thieno[2,3-d]pyrimidine-2,4(1H,3H)-dione] | – | > 1000 nM | – | – | – | –

Results, then the molecule that gave them:

MIC C. albicans ATCC 90028 (C. albicans ATCC 90028) | IC50 (Human ACC2) | MIC C. krusei ATCC 6258 (C. krusei ATCC 6258) | MIC [1] | MIC (C. albicans ATCC 90028) | MIC (C. krusei ATCC 6258) | Structure (SMILES)
A (provided an MIC of 0.25-1.0 μg/mL) | 2 to 10 nM | A (provided an MIC of 0.25-1.0 μg/mL) | 2.1 to 4 µg/mL (≈ 3.35 to 6.38 µM) | – | – | COc1ccc(F)cc1[C@H](Cn1c(=O)n(C2CCN(C(C)C)C2=O)c(=O)c2c(C)c(-n3nccn3)sc21)OC1CCOCC1 (stereo in doubt) [Compound I-138, 1-((R)-2-(5-fluoro-2-methoxyphenyl)-2-((tetrahydro-2H-pyran-4-yl)oxy)ethyl)-3-((S)-1-isopropyl-2-oxopyrrolidin-3-yl)-5-methyl-6-(2H-1,2,3-triazol-2-yl)thieno[2,3-d]pyrimidine-2,4(1H,3H)-dione]
– | 2 to 10 nM | – | – | – | – | COc1ccc(F)cc1[C@H](Cn1c(=O)n(C2CCNC2=O)c(=O)c2c(C)c(-n3nccn3)sc21)OC1CCOCC1 (stereo partly drawn) [Compound I-9, 1-((R)-2-(5-fluoro-2-methoxyphenyl)-2-((tetrahydro-2H-pyran-4-yl)oxy)ethyl)-5-methyl-3-(2-oxopyrrolidin-3-yl)-6-(22H-1,2,3-triazol-2-yl)thieno[2,3-d]pyrimidine-2,4(1H,3H)-dione]
– | 2 to 10 nM | – | 1.1 to 2 µg/mL (≈ 1.84 to 3.34 µM) | 0.25 to 1 µg/mL (≈ 0.418 to 1.67 µM) | 0.25 to 1 µg/mL (≈ 0.418 to 1.67 µM) | COc1ccc(F)cc1[C@H](Cn1c(=O)n(C2CCCNC2=O)c(=O)c2c(C)c(-n3nccn3)sc21)OC1CCOCC1 (stereo partly drawn) [Compound I-21, 1-((R)-2-(5-fluoro-2-methoxyphenyl)-2-((tetrahydro-2H-pyran-4-yl)oxy)ethyl)-5-methyl-3-(2-oxopiperidin-3-yl)-6-(2H-1,2,3-triazol-2-yl)thieno[2,3-d]pyrimidine-2,4(1H,3H)-dione]
– | 2 to 10 nM | – | 2.1 to 4 µg/mL (≈ 3.59 to 6.84 µM) | 2.1 to 4 µg/mL (≈ 3.59 to 6.84 µM) | 1.1 to 2 µg/mL (≈ 1.88 to 3.42 µM) | COc1ccc(F)cc1[C@H](Cn1c(=O)n([C@H]2CCNC2=O)c(=O)c2c(C)c(-n3nccn3)sc21)OC1CCOCC1 [Compound I-33, 1-((R)-2-(5-fluoro-2-methoxyphenyl)-2-((tetrahydro-2H-pyran-4-yl)oxy)ethyl)-5-methyl-3-((S)-2-oxopyrrolidin-3-yl)-6-(2H-1,2,3-triazol-2-yl)thieno[2,3-d]pyrimidine-2,4(1H,3H)-dione]
– | 10 to 100 nM | – | – | – | – | COc1ccc(F)cc1[C@H](Cn1c(=O)n([C@H]2CCCN(C(C)C)C2=O)c(=O)c2c(C)c(-n3nccn3)sc21)OC1CCOCC1 [Compound I-76, 1-((R)-2-(5-fluoro-2-methoxyphenyl)-2-((tetrahydro-2H-pyran-4-yl)oxy)ethyl)-3-((S)-1-isopropyl-2-oxopiperidin-3-yl)-5-methyl-6-(2H-1,2,3-triazol-2-yl)thieno[2,3-d]pyrimidine-2,4(1H,3H)-dione]
– | 2 to 10 nM | – | – | – | – | COc1ccc(F)cc1[C@H](Cn1c(=O)n([C@@H]2CCCN(C(C)C)C2=O)c(=O)c2c(C)c(-n3nccn3)sc21)OC1CCOCC1 [Compound I-77, 1-((R)-2-(5-fluoro-2-methoxyphenyl)-2-((tetrahydro-2H-pyran-4-yl)oxy)ethyl)-3-((R)-1-isopropyl-2-oxopiperidin-3-yl)-5-methyl-6-(2H-1,2,3-triazol-2-yl)thieno[2,3-d]pyrimidine-2,4(1H,3H)-dione]

Source: US20190330224A1, “ACC INHIBITORS AND USES THEREOF” (Gilead Apollo, LLC, priority 2015, published 2019)
